Key:
[1] = tested on: ASB XIV cells (pulmonary squamous cell carcinoma); experiment: Effect of isomers and BLAS on in vivo tumour growth, ASB XIV tumours (Example 8); set-up: species or system Balb/c mice; details: 260 ng/mouse i.p. days 6, 7 and 14
Text: This assay was made in order to compare the effect of each stereoisomer on in vivo tumour growth in mice with the effect of the mixture of all of them challenged with ASB XIV tumours. The stereoisomers assayed were the same as in example 7 above plus a mixture of all of them (BLAS). The equipment (when needed), reagents, dose, vehicle and route and volume of administration were the same as in example 7.
ASB XIV is a pulmonary squamous cell carcinoma originated in Balb/c mouse strain, and therefore syngeneic in mice with Balb/c genetic background.
(§1) ASB XIV cells (CLS, Eppelheim, Germany) were maintained in vitro by serial passages every 3-4 days. Cultures were performed with RPMI medium medium (RPMI, 10% foetal calf serum, 2 mM L-glutamine, non essential aminoacids, 1 mM sodium pyruvate, 20 mM HEPES, 80 μg/mL gentamycin; all of them were purchased from Sigma, St. Louis, Mo., USA) by seeding 5×10^6 cells onto 75 cm^2 culture flasks. Tumour cells collected from 48 hour cultures upon trypsinization (Sigma, St. Louis, Mo., USA) were used as source of ASB XIV cells in the present example.
• BLAS (mixture of isomers 1, 2, 3 and 4) at a concentration of 65 μg/mL in sterile physiological saline. Isomer 1 (9b) at a concentration of 65 μg/mL in sterile physiological saline. • Isomer 2 (9c) at a concentration of 65 μg/mL in sterile physiological saline. • Isomer 3 (9a) at a concentration of 65 μg/mL in sterile physiological saline. • Isomer 4 (9d) at a concentration of 65 μg/mL in sterile physiological saline. Placebo
Tumours were established by subcutaneous inoculation in the right hind flank. Mice (Balb/c) were inoculated with 0.2 mL containing 2×10^5 viable ASB XIV cells. The day of subcutaneous inoculation will be considered Day 0 of the test.
Mice were observed daily and the tumour size recorded twice a week. This was carried out by measuring two perpendicular diameters (d1/d2) with a calliper. These measures were used to obtain both tumour surface and volume: Tumour surface=d1×d2(mm^2) Tumour volume=d1×d2^2×½(mm^3)
(§2) Results were expressed as single values and/or as the mean±SD or median from each experimental group.
(§3) A case-control study was performed with treated and control mice in order to determine whether differences between BLAS or each diferent stereoisomer and administration of placebo were present. […] The U-test of Mann Withney was chosen for being one of the better known non-parametrical tests, anyway, results for this test are equivalent both to those of Wilcoxon's sum of ranges and Kruskal-Wallis two-groups test.
Due to the high dispersion of data, outlayers (animals beyond percentile 10 or above percentile 90 for tumour surface at day 33) were excluded of the study.

[2] = tested on: Renca cells (renal cell carcinoma); experiment: Effect of isomers on in vivo tumour growth in mice challenged with Renca cells (Example 7); set-up: species or system Balb/c mice; details: 260 ng/mouse i.p. days 6, 7, 14
Text: This assay was made in order to check the effect of each stereoisomer on in vivo tumour growth in mice challenged with Renca cells. Their effect was compared with placebo. The stereoisomers assayed were:
Renca is a renal cell carcinoma originated in Balb/c mouse strain, and therefore syngeneic in mice with Balb/c genetic background [Melder R J et al., Cancer Immunol. Immunother., 2005, 54:535-547; Felluga B et al., 1969, J. Natl. Cancer Inst. 43:319-333]. Renca is considered a moderate immunogenic tumour and used as suitable model for testing immunointervention approaches [Salup R R, et al., 1992, The Journal of Urology, 147:1120-1123].
as §1, with “Renca cells” for “ASB XIV cells”, “essential amino acids,” for “essential aminoacids,”, “of Renca” for “of ASB XIV”, “cells for” for “cells in”, “the studies described below.” for “the present example.”
Each isomer was tested at the dose levels of 260 ng administered on days 6, 7 and 14 after tumour inoculation.
The treatments were given by intraperitoneal route (i.p.). The volume inoculated was 0.2 mL/animal. This route was chosen because it is the one described in the original method [Pérez S, et al., 2003, Clinical Cancer Research. 9:5776-5785].
Tumours were established by subcutaneous inoculation in the right hind flank. Mice (Balb/c) were inoculated with 0.2 mL containing 10^5 viable Renca cells. The day of subcutaneous inoculation will be considered Day 0 of the test.
Mice were observed daily and the tumour size recorded twice a week. This was carried out by measuring two perpendicular diameters (L/W) with a calliper. These measures were used to obtain both tumour surface and volume: Tumour surface=L×W(mm^2) Tumour volume=L×W^2×½(mm^3)
as §2
as §3, with “isomers” for “BLAS or each diferent stereoisomer”
Due to the high dispersion of data, outlayers (animals beyond percentile 25 or above percentile 75 for tumour surface at day 25) were excluded of the study.

[3] = day 12 after tumour inoculation
[4] = day 15 after tumour inoculation
[5] = day 19 after tumour inoculation
[6] = day 22 after tumour inoculation
[7] = day 26 after tumour inoculation
[8] = day 29 after tumour inoculation
[9] = day 33 after tumour inoculation
[10] = day 11 after tumour inoculation

## Br.N[C@@]1(C[n+]2ccccc2)C[C@@H](C(=O)O)NC1=O.[Br-] (single isomer, unassigned; isomer 1) [isomer 1, 3R,5S-1-(3-Amino-5-carboxy-2-oxopyrrolidin-3-ylmethyl)pyridinium bromide hidrobromide]
[1]; day 0 after tumour inoculation
  Tumour surface, overall values (Mean): 0 mm^2
  Tumour surface, overall values (Median): 0 mm^2
  Tumour volume, overall values (Mean): 0 mm^3
  Tumour volume, overall values (Median): 0 mm^3
[1]; day 8 after tumour inoculation
  Tumour surface, overall values (Mean): 0 mm^2
  Tumour surface, overall values (Median): 0 mm^2
  Tumour volume, overall values (Mean): 0 mm^3
  Tumour volume, overall values (Median): 0 mm^3
[1]; [3]
  Tumour surface, overall values (Mean): 0.32 mm^2
  Tumour surface, overall values (Median): 0 mm^2
  Tumour volume, overall values (Mean): 0.45 mm^3
  Tumour volume, overall values (Median): 0 mm^3
[1]; [4]
  Tumour surface, overall values (Mean): 3.45 mm^2
  Tumour surface, overall values (Median): 0 mm^2
  Tumour volume, overall values (Mean): 5.34 mm^3
  Tumour volume, overall values (Median): 0 mm^3
[1]; [5]
  Tumour surface, overall values (Mean): 19.65 mm^2
  Tumour surface, overall values (Median): 16 mm^2
  Tumour volume, overall values (Mean): 53.37 mm^3
  Tumour volume, overall values (Median): 32 mm^3
[1]; [6]
  Tumour surface, overall values (Mean): 46.81 mm^2
  Tumour volume, overall values (Mean): 179.79 mm^3
[1]; [7]
  Tumour surface, overall values (Mean): 92.52 mm^2
  Tumour surface, overall values (Median): 72 mm^2
  Tumour volume, overall values (Mean): 474.10 mm^3
  Tumour volume, overall values (Median): 288 mm^3
[1]; [8]
  Tumour surface, overall values (Mean): 125.16 mm^2
  Tumour surface, overall values (Median): 110 mm^2
  Tumour volume, overall values (Mean): 733.26 mm^3
  Tumour volume, overall values (Median): 550 mm^3
[1]; [9]
  Tumour surface, overall values (Mean): 165.65 mm^2
  Tumour surface, overall values (Median): 154 mm^2
  Tumour volume, overall values (Mean): 1114.37 mm^3
  Tumour volume, overall values (Median): 864 mm^3
[2]; day 0 after tumour inoculation
  Tumour surface, overall values (Mean): 0 mm^2
  Tumour surface, overall values (Median): 0 mm^2
  Tumour volume, overall values (Mean): 0 mm^3
  Tumour volume, overall values (Median): 0 mm^3
[2]; [10]
  Tumour surface, overall values (Median): 0 mm^2
  Tumour volume, overall values (Median): 0 mm^3

## Br.N[C@@]1(C[n+]2ccccc2)C[C@H](C(=O)O)NC1=O.[Br-] (single isomer, unassigned; isomer 2) [isomer 2, 3R,5R-1-(3-Amino-5-carboxy-2-oxopyrrolidin-3-ylmethyl)pyridinium bromide hidrobromide]
[1]; day 0 after tumour inoculation
  Tumour surface, overall values (Mean): 0 mm^2
  Tumour surface, overall values (Median): 0 mm^2
  Tumour volume, overall values (Mean): 0 mm^3
  Tumour volume, overall values (Median): 0 mm^3
[1]; day 8 after tumour inoculation
  Tumour surface, overall values (Mean): 0 mm^2
  Tumour surface, overall values (Median): 0 mm^2
  Tumour volume, overall values (Mean): 0 mm^3
  Tumour volume, overall values (Median): 0 mm^3
[1]; [3]
  Tumour surface, overall values (Mean): 0.71 mm^2
  Tumour surface, overall values (Median): 0 mm^2
  Tumour volume, overall values (Mean): 1 mm^3
  Tumour volume, overall values (Median): 0 mm^3
[1]; [4]
  Tumour surface, overall values (Mean): 6.19 mm^2
  Tumour surface, overall values (Median): 0 mm^2
  Tumour volume, overall values (Mean): 12.68 mm^3
  Tumour volume, overall values (Median): 0 mm^3
[1]; [5]
  Tumour surface, overall values (Mean): 29.84 mm^2
  Tumour surface, overall values (Median): 25 mm^2
  Tumour volume, overall values (Mean): 102.44 mm^3
  Tumour volume, overall values (Median): 62.5 mm^3
[1]; [6]
  Tumour surface, overall values (Mean): 63.55 mm^2
  Tumour surface, overall values (Median): 56 mm^2
  Tumour volume, overall values (Mean): 292.39 mm^3
  Tumour volume, overall values (Median): 196 mm^3
[1]; [7]
  Tumour surface, overall values (Mean): 105.97 mm^2
  Tumour surface, overall values (Median): 110 mm^2
  Tumour volume, overall values (Mean): 603.66 mm^3
  Tumour volume, overall values (Median): 550 mm^3
[1]; [8]
  Tumour surface, overall values (Mean): 142.45 mm^2
  Tumour surface, overall values (Median): 144 mm^2
  Tumour volume, overall values (Mean): 913.90 mm^3
  Tumour volume, overall values (Median): 864 mm^3
[1]; [9]
  Tumour surface, overall values (Mean): 188.87 mm^2
  Tumour surface, overall values (Median): 210 mm^2
  Tumour volume, overall values (Mean): 1377.02 mm^3
  Tumour volume, overall values (Median): 1436.5 mm^3
[2]; day 0 after tumour inoculation
  Tumour surface, overall values (Mean): 0 mm^2
  Tumour surface, overall values (Median): 0 mm^2
  Tumour volume, overall values (Mean): 0 mm^3
  Tumour volume, overall values (Median): 0 mm^3
[2]; [10]
  Tumour surface, overall values (Median): 0 mm^2
  Tumour volume, overall values (Median): 0 mm^3
[2]; day 14 after tumour inoculation
  Tumour surface, overall values (Median): 9 mm^2

From patent US8835466B2, “Synthesis and uses of pyroglutamic acid derivatives” (Prodimed, S.A., priority 2006, dated 2014)
